Reference: ChEMBL document CHEMBL2439971, “Design, synthesis and antiproliferative evaluation of fluorenone analogs with DNA topoisomerase I inhibitory properties” (Bioorg Med Chem, 2013)
The source made the active and inactive calls. The rule behind the calls is not given here.

What was measured:
PC-3 [1] = experiment: Cytotoxicity against human PC3 cells after 48 hrs by sulforhodamine B assay; type: functional, cell-based; conditions: PC-3, 48 h
Homo sapiens = organism: Homo sapiens; experiment: Inhibition of telomerase (unknown origin) at 10 uM TRAP assay
SN12C = experiment: Cytotoxicity against human SN12C cells at 10 uM after 48 hrs by sulforhodamine B assay relative to control; type: functional
COLO 205 = experiment: Cytotoxicity against human COLO205 cells at 10 uM after 48 hrs by sulforhodamine B assay relative to control; type: functional
T47D = experiment: Cytotoxicity against human T47D cells at 10 uM after 48 hrs by sulforhodamine B assay relative to control; type: functional
MOLT-4 = experiment: Cytotoxicity against human MOLT4 cells at 10 uM after 48 hrs by sulforhodamine B assay relative to control; type: functional
SW-620 = experiment: Cytotoxicity against human SW620 cells at 10 uM after 48 hrs by sulforhodamine B assay relative to control; type: functional
SR = experiment: Cytotoxicity against human SR cells at 10 uM after 48 hrs by sulforhodamine B assay relative to control; type: functional
TK-10 = experiment: Cytotoxicity against human TK10 cells at 10 uM after 48 hrs by sulforhodamine B assay relative to control; type: functional
OVCAR-3 = experiment: Cytotoxicity against human OVCAR3 cells at 10 uM after 48 hrs by sulforhodamine B assay relative to control; type: functional
A549 = experiment: Cytotoxicity against human A549 cells at 10 uM after 48 hrs by sulforhodamine B assay relative to control; type: functional
SNB-19 = experiment: Cytotoxicity against human SNB19 cells at 10 uM after 48 hrs by sulforhodamine B assay relative to control; type: functional
SF-539 = experiment: Cytotoxicity against human SF539 cells at 10 uM after 48 hrs by sulforhodamine B assay relative to control; type: functional
MCF7 = experiment: Cytotoxicity against human MCF7 cells at 10 uM after 48 hrs by sulforhodamine B assay relative to control; type: functional
RXF 393 = experiment: Cytotoxicity against human RXF393 cells at 10 uM after 48 hrs by sulforhodamine B assay relative to control; type: functional
ACHN = experiment: Cytotoxicity against human ACHN cells at 10 uM after 48 hrs by sulforhodamine B assay relative to control; type: functional
NCI/ADR-RES = experiment: Cytotoxicity against human NCI/ADR-RES cells at 10 uM after 48 hrs by sulforhodamine B assay relative to control; type: functional
HCT-116 = experiment: Cytotoxicity against human HCT116 cells at 10 uM after 48 hrs by sulforhodamine B assay relative to control; type: functional
KM12 = experiment: Cytotoxicity against human KM12 cells at 10 uM after 48 hrs by sulforhodamine B assay relative to control; type: functional
BT-549 = experiment: Cytotoxicity against human BT549 cells at 10 uM after 48 hrs by sulforhodamine B assay relative to control; type: functional
NCI-H23 = experiment: Cytotoxicity against human NCI-H23 cells at 10 uM after 48 hrs by sulforhodamine B assay relative to control; type: functional
NCI-H522 = experiment: Cytotoxicity against human NCI-H522 cells at 10 uM after 48 hrs by sulforhodamine B assay relative to control; type: functional
K562 = experiment: Cytotoxicity against human K562 cells at 10 uM after 48 hrs by sulforhodamine B assay relative to control; type: functional
OVCAR-8 = experiment: Cytotoxicity against human OVCAR8 cells at 10 uM after 48 hrs by sulforhodamine B assay relative to control; type: functional
[2] = Cytotoxicity against human EKVX cells at 10 uM after 48 hrs by sulforhodamine B assay relative to control; type: functional
OVCAR-4 = experiment: Cytotoxicity against human OVCAR4 cells at 10 uM after 48 hrs by sulforhodamine B assay relative to control; type: functional
UO-31 = experiment: Cytotoxicity against human UO31 cells at 10 uM after 48 hrs by sulforhodamine B assay relative to control; type: functional
NCI-H460 = experiment: Cytotoxicity against human NCI-H460 cells at 10 uM after 48 hrs by sulforhodamine B assay relative to control; type: functional
SNB-75 = experiment: Cytotoxicity against human SNB75 cells at 10 uM after 48 hrs by sulforhodamine B assay relative to control; type: functional
SK-MEL-2 = experiment: Cytotoxicity against human SK-MEL-2 cells at 10 uM after 48 hrs by sulforhodamine B assay relative to control; type: functional
NCI-H226 = experiment: Cytotoxicity against human NCI-H226 cells at 10 uM after 48 hrs by sulforhodamine B assay relative to control; type: functional
786-0 = experiment: Cytotoxicity against human 786-0 cells at 10 uM after 48 hrs by sulforhodamine B assay relative to control; type: functional
HCC 2998 = experiment: Cytotoxicity against human HCC2998 cells at 10 uM after 48 hrs by sulforhodamine B assay relative to control; type: functional
HCT-15 = experiment: Cytotoxicity against human HCT15 cells at 10 uM after 48 hrs by sulforhodamine B assay relative to control; type: functional
MDA-MB-231 = experiment: Cytotoxicity against human MDA-MB-231 cells at 10 uM after 48 hrs by sulforhodamine B assay relative to control; type: functional
Malme-3M = experiment: Cytotoxicity against human MALME-3M cells at 10 uM after 48 hrs by sulforhodamine B assay relative to control; type: functional
RPMI-8226 = experiment: Cytotoxicity against human RPMI8226 cells at 10 uM after 48 hrs by sulforhodamine B assay relative to control; type: functional
HT-29 = experiment: Cytotoxicity against human HT-29 cells at 10 uM after 48 hrs by sulforhodamine B assay relative to control; type: functional
HL-60(TB) = experiment: Cytotoxicity against human HL-60(TB) cells at 10 uM after 48 hrs by sulforhodamine B assay relative to control; type: functional
MDA-MB-468 = experiment: Cytotoxicity against human MDA-MB-468 cells at 10 uM after 48 hrs by sulforhodamine B assay relative to control; type: functional
[3] = Cytotoxicity against human Hs 578T cells at 10 uM after 48 hrs by sulforhodamine B assay relative to control; type: functional
SK-MEL-28 = experiment: Cytotoxicity against human SK-MEL-28 cells at 10 uM after 48 hrs by sulforhodamine B assay relative to control; type: functional
UACC-62 = experiment: Cytotoxicity against human UACC62 cells at 10 uM after 48 hrs by sulforhodamine B assay relative to control; type: functional
U-251 = experiment: Cytotoxicity against human U251 cells at 10 uM after 48 hrs by sulforhodamine B assay relative to control; type: functional
HOP-62 = experiment: Cytotoxicity against human HOP62 cells at 10 uM after 48 hrs by sulforhodamine B assay relative to control; type: functional
UACC-257 = experiment: Cytotoxicity against human UACC257 cells at 10 uM after 48 hrs by sulforhodamine B assay relative to control; type: functional
IGROV-1 = experiment: Cytotoxicity against human IGROV1 cells at 10 uM after 48 hrs by sulforhodamine B assay relative to control; type: functional
LOX IMVI = experiment: Cytotoxicity against human LOXIMVI cells at 10 uM after 48 hrs by sulforhodamine B assay relative to control; type: functional
SK-MEL-5 = experiment: Cytotoxicity against human SK-MEL-5 cells at 10 uM after 48 hrs by sulforhodamine B assay relative to control; type: functional
CCRF-CEM = experiment: Cytotoxicity against human CCRF-CEM cells at 10 uM after 48 hrs by sulforhodamine B assay relative to control; type: functional
M14 = experiment: Cytotoxicity against human M14 cells at 10 uM after 48 hrs by sulforhodamine B assay relative to control; type: functional
DU-145 = experiment: Cytotoxicity against human DU145 cells at 10 uM after 48 hrs by sulforhodamine B assay relative to control; type: functional
PC-3 [4] = experiment: Cytotoxicity against human PC3 cells at 10 uM after 48 hrs by sulforhodamine B assay relative to control; type: functional
SF-268 = experiment: Cytotoxicity against human SF268 cells at 10 uM after 48 hrs by sulforhodamine B assay relative to control; type: functional
OVCAR-5 = experiment: Cytotoxicity against human OVCAR5 cells at 10 uM after 48 hrs by sulforhodamine B assay relative to control; type: functional

O=C1c2cc([N+](=O)[O-])ccc2-c2ccc([N+](=O)[O-])cc21
IC50 (PC-3 [1]): > 30 µM | inhibition (Homo sapiens): inactive

CCCNCCC(=O)Nc1ccc2c(c1)C(=O)c1cc(NC(=O)CCNCCC)ccc1-2
IC50 (PC-3 [1]): 20.8 µM | inhibition (Homo sapiens): inactive

O=C(CN1CCCCC1)Nc1ccc2c(c1)C(=O)c1cc(NC(=O)CN3CCCCC3)ccc1-2
IC50 (PC-3 [1]): > 30 µM | inhibition (Homo sapiens): inactive

CC(C)SCCC(=O)Nc1ccc2c(c1)C(=O)c1cc(NC(=O)CCSC(C)C)ccc1-2
IC50 (PC-3 [1]): > 30 µM | inhibition (Homo sapiens): inactive

O=C(CCN1CCCCC1)Nc1ccc2c(c1)C(=O)c1cc(NC(=O)CCN3CCCCC3)ccc1-2
IC50 (PC-3 [1]): 6.26 µM | inhibition (Homo sapiens): inactive

O=C(CCN1CCCC1)Nc1ccc2c(c1)C(=O)c1cc(NC(=O)CCN3CCCC3)ccc1-2
IC50 (PC-3 [1]): 6.06 µM | inhibition (Homo sapiens): inactive

O=C(CCl)Nc1ccc2c(c1)C(=O)c1cc(NC(=O)CCl)ccc1-2
IC50 (PC-3 [1]): 0.55 µM | inhibition (Homo sapiens): inactive

CCSCC(=O)Nc1ccc2c(c1)C(=O)c1cc(NC(=O)CSCC)ccc1-2
IC50 (PC-3 [1]): > 30 µM | inhibition (Homo sapiens): inactive

O=C(CSCCO)Nc1ccc2c(c1)C(=O)c1cc(NC(=O)CSCCO)ccc1-2
IC50 (PC-3 [1]): > 30 µM | inhibition (Homo sapiens): inactive

CC(C)SCC(=O)Nc1ccc2c(c1)C(=O)c1cc(NC(=O)CSC(C)C)ccc1-2
IC50 (PC-3 [1]): > 30 µM | inhibition (Homo sapiens): inactive

CCCCNCCC(=O)Nc1ccc2c(c1)C(=O)c1cc(NC(=O)CCNCCCC)ccc1-2
IC50 (PC-3 [1]): 26.9 µM | inhibition (Homo sapiens): inactive

Nc1ccc2c(c1)C(=O)c1cc(N)ccc1-2
IC50 (PC-3 [1]): > 30 µM | inhibition (Homo sapiens): inactive

CC(C)CNCC(=O)Nc1ccc2c(c1)C(=O)c1cc(NC(=O)CNCC(C)C)ccc1-2
IC50 (PC-3 [1]): > 30 µM | inhibition (Homo sapiens): inactive

O=C(CCCl)Nc1ccc2c(c1)C(=O)c1cc(NC(=O)CCCl)ccc1-2
IC50 (PC-3 [1]): > 30 µM | inhibition (Homo sapiens): inactive

CC(C)NCCC(=O)Nc1ccc2c(c1)C(=O)c1cc(NC(=O)CCNC(C)C)ccc1-2
IC50 (PC-3 [1]): 10 µM | inhibition (Homo sapiens): inactive

CC(C)NCC(=O)Nc1ccc2c(c1)C(=O)c1cc(NC(=O)CNC(C)C)ccc1-2
IC50 (PC-3 [1]): 6.19 µM | inhibition (Homo sapiens): inactive

O=C(CCNCCO)Nc1ccc2c(c1)C(=O)c1cc(NC(=O)CCNCCO)ccc1-2
IC50 (PC-3 [1]): 19.2 µM | inhibition (Homo sapiens): inactive

O=C(CN1CCOCC1)Nc1ccc2c(c1)C(=O)c1cc(NC(=O)CN3CCOCC3)ccc1-2
IC50 (PC-3 [1]): > 30 µM | inhibition (Homo sapiens): inactive

CN1CCN(CCC(=O)Nc2ccc3c(c2)C(=O)c2cc(NC(=O)CCN4CCN(C)CC4)ccc2-3)CC1
Activity (SN12C): 102.94% | Activity (COLO 205): 108.32% | Activity (T47D): 102.07% | Activity (MOLT-4): 94.59% | Activity (SW-620): 105.36% | Activity (SR): 92.06% | Activity (TK-10): 99.67% | Activity (OVCAR-3): 116.35% | Activity (A549): 106.9% | Activity (SNB-19): 105.99% | Activity (SF-539): 111.08% | Activity (MCF7): 95.72% | Activity (RXF 393): 97.03% | Activity (ACHN): 100.97% | Activity (NCI/ADR-RES): 103.89% | Activity (HCT-116): 100.16% | Activity (KM12): 111.12% | Activity (BT-549): 107.82% | Activity (NCI-H23): 96.83% | Activity (NCI-H522): 86.63% | Activity (K562): 99.19% | Activity (OVCAR-8): 101.48% | Activity [2]: 111.18% | Activity (OVCAR-4): 99.91% | Activity (UO-31): 89.26% | IC50 (PC-3 [1]): > 30 µM | Activity (NCI-H460): 107.13% | Activity (SNB-75): 77.89% | Activity (SK-MEL-2): 109.38% | Activity (NCI-H226): 98.16% | Activity (786-0): 100.57% | Activity (HCC 2998): 99.57% | Activity (HCT-15): 101.35% | Activity (MDA-MB-231): 115.67% | Activity (Malme-3M): 98.05% | Activity (RPMI-8226): 106.48% | Activity (HT-29): 101.23% | Activity (HL-60(TB)): 103.58% | Activity (MDA-MB-468): 88.91% | Activity [3]: 102.5% | Activity (SK-MEL-28): 96.67% | Activity (UACC-62): 104.21% | Activity (U-251): 100.29% | Activity (HOP-62): 109.22% | Activity (UACC-257): 103.02% | Activity (IGROV-1): 102.45% | inhibition (Homo sapiens): inactive | Activity (LOX IMVI): 96.43% | Activity (SK-MEL-5): 107.35% | Activity (CCRF-CEM): 97.76% | Activity (M14): 105.74% | Activity (DU-145): 112.6% | Activity (PC-3 [4]): 104.35% | Activity (SF-268): 109.98% | Activity (OVCAR-5): 104.62%

CCCSCCC(=O)Nc1ccc2c(c1)C(=O)c1cc(NC(=O)CCSCCC)ccc1-2
IC50 (PC-3 [1]): > 30 µM | inhibition (Homo sapiens): inactive

O=C(CNCCO)Nc1ccc2c(c1)C(=O)c1cc(NC(=O)CNCCO)ccc1-2
IC50 (PC-3 [1]): > 30 µM | inhibition (Homo sapiens): inactive
